Experimental data published in article PMC8540140, “The Real Cytotoxic Effect of Artemisinins on Colon Cancer Cells in a Physiological Cell Culture Setting. How Composition of the Culture Medium Biases Experimental Findings” (Pharmaceuticals, 2021).
Read-outs that look alike come from different tables or passages of the source.

Legend:
[1] = tested on: SW620 human metastatic colon cancer cell line; test: MTT cytotoxicity assay, SW620; format: cell-based; details: SW-620, 72 h, LA 20 or 40 µM, TRFi 50 µM where named in the label
Description: The cytotoxic effects of tested compounds were assessed by MTT (3-(4,5-dimethylthiazol-2-yl)-2,5-diphenyltetrazolium bromide) assay. […] Obtained purple formazan product was dissolved in DMSO with isopropanol (1:1) and the optical density was measured at 570 nm. […] The relative MTT level (%) was calculated according formula [A]/[B] × 100. [A] express the absorbance of the test sample whereas [B] the absorbance of the control sample (untreated cells. IC50 values were calculated using CompuSyn version 1.0.

SW620 cells [2] = test: FITC Annexin V/PI flow cytometry apoptosis assay, SW620; format: cell-based, human; details: for cells in late apoptosis SW620: with LA 40 and TRFi addition
Description: (§1) The cells were cultured and harvested under the conditions mentioned in Cell Culture and Treatment and seeded in 6-well plates (2 × 10^5 cells per well). […] The apoptotic effect of compounds was measured using the Annexin V:FITC assay kit (Sigma Aldrich) in accordance with the protocols provided. After 72 h treatment both floating and adherent cells were harvested. The floating cells were collected by centrifugation at 700× g for 5 min at 4 °C. Adherent cells were first trypsinized and then collected by centrifugation at 700× g for 5 min at 4 °C. Both fractions were resuspended in Annexin V binding buffer, pooled and incubated with FITC Annexin V and PI for 15 min at room temperature in the dark and analyzed by flow cytometry (Becton Dickinson). A total of 10,000 events were collected. Annexin V:FITC positive and PI negative cells were recognized as early apoptosis and Annexin V:FITC and PI positive cells as late apoptosis or necrosis.

SW620 cells [3] = test: Trypan blue exclusion viability assay, SW620; format: cell-based, human; details: 8 µM with LA (40 µM), 72 h, TB assay
Description: (§2) Next, the cells were harvested by treatment with 0.25% trypsin-0.02% EDTA (Gibco Life Technologies, Carslabad, CA USA) and seeded in 96-well plates (1 × 10^4 cells per well) for MTT assay or in 6-well plates (4 × 10^4 cells per well) for Trypan blue exclusion method. […] The cells treated only with 20 µM LA were used as a control. All experimental settings were repeated with holo-transferrin (TRFi) at pharmacological concentration (50 µM). All cells were cultured for a period of 72 h.
(§3) After a 72 h incubation with serial concentration of experimental compounds the cells were washed in PBS and harvested with trypsin. The viability was estimated by trypan blue exclusion assay using an automated cell counter (Countess Invitrogen). Experiments were performed in triplicate.

SW480 cells [4] = test: FITC Annexin V/PI flow cytometry apoptosis assay, SW480; format: cell-based; details: Homo sapiens, SW480, 72 h; read-out: Q1 viable cells SW480
Description: as §1

SW948 cells = tested on: SW948 cells; set-up: method as in ref 36 (Lu et al. 2018); details: 48 h, ref 36 (Lu et al. 2018), cited from earlier work
[5] = tested on: HaCaT human immortal keratinocyte cell line; test: MTT cytotoxicity assay, HaCaT; format: cell-based; details: for IC50: Homo sapiens, HaCaT, MTT, 72 h; for cytotoxic effect on HaCaT cells: combination with LA40 and TRFi
Description: (§4) The human cell lines SW480 (primary colon cancer), SW620 (lymph node metastatic from the same patient as SW480), and HaCaT (immortalized keratinocyte) were obtained from the American Type Culture Collection (ATCC, Rockville, USA). SW480 and SW620 cells were grown in MEM (minimal essential medium, ThermoSci, USA), and HaCaT in DMEM high glucose (Dulbecco’s Modified Eagle’s Medium, Biowest SAS, France) supplemented with 10% FBS (fetal bovine serum), HEPES (20 mM), and antibiotics (100 U/mL of penicillin and 100 μg/mL of streptomycin). The cells were maintained in a humidified incubator at 37 °C/5% CO2 until 80–90% confluence was reached.
as §2
(§5) The cytotoxic effects of tested compounds were assessed by MTT (3-(4,5-dimethylthiazol-2-yl)-2,5-diphenyltetrazolium bromide) assay. This assay is based on the metabolic reduction of soluble MTT into an insoluble colored formazan product by mitochondrial dehydrogenase activity of viable cells. After 72 h incubation in the presence of experimental compounds the cells were incubated at 37 °C with MTT solution (0.5 mg/mL) for 4h. Obtained purple formazan product was dissolved in DMSO with isopropanol (1:1) and the optical density was measured at 570 nm. Each experiment was performed in triplicate. The cytotoxicity of compounds was presented as a percent of MTT reduced in treated cells vs. control cells. The relative MTT level (%) was calculated according formula [A]/[B] × 100. [A] express the absorbance of the test sample whereas [B] the absorbance of the control sample (untreated cells. IC50 values were calculated using CompuSyn version 1.0.

SW480 cells [6] = test: Trypan blue exclusion viability assay, SW480; format: cell-based, human; details: 8 µM with LA (40 µM), 72 h, TB assay
Description: as §2, §3

[7] = FITC Annexin V/PI flow cytometry apoptosis assay, HaCaT; format: cell-based, human; details: human, HaCaT cells; read-out: Q1 viable cells HaCaT
Description: as §1

HaCaT cells = test: as above; format: cell-based, human; details: with LA 40 and TRFi addition
Description: as §1

HCT-116 cells = tested on: HCT-116 cells; set-up: method as in ref 37 (Lu et al. 2014); details: 40 μM, 72 h; ref 37 (Lu et al. 2014); cited from earlier work
[8] = tested on: SW480 human primary colon cancer cell line; test: MTT cytotoxicity assay, SW480; format: cell-based; details: 72 h, LA 20 or 40 µM, TRFi 50 µM where named in the label
Description: as §4, §2, §5

[9] = tested on: IL-6 secreted by SW620 cells; test: Interleukin-6 ELISA in culture medium, SW620; format: cell-based, human; details: added to ART-LA or DHA-LA (20 and 40 µM), 72 h; all studied settings except ART-LA20
Description: (§6) The level of interleukin-6 (IL-6) secreted by SW480 and SW620 cells was measured by commercial human IL-6 ELISA kits (Diaclon SAS, Besancon Cedex, France). […] The untreated cells were used as the control. The IL-6 level in a cell culture supernatant was determined by an enzyme-linked immunosorbent assay, according to the manufacturer’s protocol. The experiment was repeated three times.

[10] = tested on: IL-6 secreted by SW480 cells; test: Interleukin-6 ELISA in culture medium, SW480; format: cell-based, human; details: added to ART-LA or DHA-LA (20 and 40 µM), 72 h; all studied settings
Description: as §6

[11] = with TRFi 50 µM, read-out: IC50 HaCaT at the presence of TRFi
[12] = LA 20 or 40 µM, TRFi 50 µM where named in the label, read-out: IC50 HaCaT

Compound	IC50 [1] [µM]	viability at 2 µM (SW620 cells [2]; Homo sapiens, SW-620, 72 h, read-out: Q1 viable cells SW620) [%]	cells in late apoptosis SW620 (SW620 cells [2]) [%]	viability SW620 (SW620 cells [3]) [%]	viability at 2 µM (SW480 cells [4]) [%]	viability SW948 (SW948 cells; 30 µM) [%]	viability SW948 (SW948 cells; 50 µM) [%]	IC50 [5, 11] [µM]	IC50 [5, 12] [µM]	cytotoxic effect on HaCaT cells [5]	viability SW480 (SW480 cells [6]) [%]	viability at 72 h, 2 µM [7] [%]	late apoptosis HaCaT (HaCaT cells) [%]	viability HCT-116 (HCT-116 cells) [%]	IC50 [8] [µM]	effect of TRFi addition on IL-6 concentration SW620 [9]	effect of TRFi addition on IL-6 concentration SW480 [10]
C[C@H]1[C@@H](O)O[C@@H]2O[C@@]3(C)CC[C@H]4[C@H](C)CC[C@@H]1[C@@]24OO3 [DHA, dihydroartemisinin]	11.9 ± 2.3	72.4	90	42 ± 2.1	60.7	45	24	129	116 ± 5.5	no cytotoxic effect	35 ± 1.8	73.7	42.80	40	11.4 ± 1.67	–	–
C[C@@H]1CC[C@H]2[C@@H](C)C(=O)O[C@@H]3O[C@@]4(C)CC[C@@H]1[C@]32OO4 [ART, Artemisinin]	42.8 ± 4.6	–	90	48 ± 2.8	–	–	–	187	203 ± 16.2	no cytotoxic effect	39 ± 2.8	80.8	25.68	–	39 ± 2.75	–	–
TRFi: holotransferrin, iron-binding protein added to culture medium at 50 µM	–	–	–	–	–	–	–	–	–	–	–	–	–	–	–	increased IL-6 concentration	increased IL-6 concentration
COc1cccc2c1C(=O)c1c(O)c3c(c(O)c1C2=O)C[C@@](O)(C(=O)CO)C[C@@H]3O[C@H]1C[C@H](N)[C@H](O)[C@H](C)O1 [DOX, doxorubicin]	–	–	–	–	–	–	–	–	0.29 ± 0.1	–	–	–	–	–	0.75 ± 0.1	–	–
